Laboratory results taken from the supplement of paper PMC10307832.

Key:
Assay in all cases: relative viability (nuclei count vs DMSO), 5 days (fraction); higher = more cells survive
[1] = compound: CC(C)CCN1c2nc(Nc3cc(F)c(O)c(F)c3)ncc2N(C)C(=O)C1C [BI-D1870] + CC(=O)Nc1cccc(-n2c(=O)n(C3CC3)c(=O)c3c(Nc4ccc(I)cc4F)n(C)c(=O)c(C)c32)c1 [Trametinib] (partner 0.02 µM)
Summary of the method: (§1)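 Lung cancer cell lines were pin-tool dosed in 1536-well plates on the day after seeding, with either a lone drug or a fixed anchor-drug dose plus five library-drug doses (not always all listed) in √10 steps. Nuclei were counted on 4× images after 5 days. Relative viability is the ratio of treated-well to vehicle-well nuclei counts, with each value a median of duplicate plates.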

[2] = compound: CC(C)CCN1c2nc(Nc3cc(F)c(O)c(F)c3)ncc2N(C)C(=O)C1C [BI-D1870] + CC1(C)CCC(c2ccc(Cl)cc2)=C(CN2CCN(c3ccc(C(=O)NS(=O)(=O)c4ccc(N[C@H](CCN5CCOCC5)CSc5ccccc5)c(S(=O)(=O)C(F)(F)F)c4)cc3)CC2)C1 [Navitoclax] (partner 0.5 µM)
Summary of the method: as §1

[3] = compound: CC(C)CCN1c2nc(Nc3cc(F)c(O)c(F)c3)ncc2N(C)C(=O)C1C [BI-D1870] + Cc1cc(Nc2cc(N3CCN(C)CC3)nc(Sc3ccc(NC(=O)C4CC4)cc3)n2)n[nH]1 [Tozasertib] (partner 0.1 µM)
Summary of the method: as §1

[4] = compound: CC(C)CCN1c2nc(Nc3cc(F)c(O)c(F)c3)ncc2N(C)C(=O)C1C [BI-D1870] + COc1cc2c(Oc3ccc(NC(=O)C4(C(=O)Nc5ccc(F)cc5)CC4)cc3F)ccnc2cc1OCCCN1CCOCC1 [Foretinib] (partner 0.25 µM)
Summary of the method: as §1

Q: UMC-11 was tested. Which relative viability ([1]; first compound 0.04 µM) did it give?
A: Its relative viability is 0.701.

Q: What about the relative viability ([1]; first compound 0.1265 µM) of the same cell line?
A: The relative viability was 0.682.

Q: What about the relative viability ([1]; first compound 0.4 µM) of the same cell line?
A: Its relative viability is 0.688.

Q: What about the relative viability ([1]; first compound 1.265 µM) of the same cell line?
A: Its relative viability is 0.774.

Q: And the relative viability ([1]; first compound 4 µM)?
A: Its relative viability is 0.352.

Q: What about the relative viability ([2]; first compound 0.04 µM) of the same cell line?
A: The relative viability was 0.287.

Q: What about the relative viability ([2]; first compound 0.1265 µM) of the same cell line?
A: Its relative viability is 0.295.

Q: And the relative viability ([2]; first compound 0.4 µM)?
A: Its relative viability is 0.311.

Q: What about the relative viability ([2]; first compound 1.265 µM) of the same cell line?
A: Its relative viability is 0.336.

Q: And the relative viability ([2]; first compound 4 µM)?
A: The relative viability was 0.129.

Q: What about the relative viability ([3]; first compound 0.04 µM) of the same cell line?
A: The relative viability was 0.197.

Q: And the relative viability ([3]; first compound 0.1265 µM)?
A: The relative viability was 0.205.

Q: And the relative viability ([3]; first compound 0.4 µM)?
A: The relative viability was 0.195.

Q: And the relative viability ([3]; first compound 1.265 µM)?
A: The relative viability was 0.191.

Q: What about the relative viability ([3]; first compound 4 µM) of the same cell line?
A: The relative viability was 0.188.

Q: What about the relative viability ([4]; first compound 0.04 µM) of the same cell line?
A: The relative viability was 1.1.

Q: What about the relative viability ([4]; first compound 0.1265 µM) of the same cell line?
A: The relative viability was 0.986.

Q: What about the relative viability ([4]; first compound 0.4 µM) of the same cell line?
A: The relative viability was 1.11.

Q: And the relative viability ([4]; first compound 1.265 µM)?
A: The relative viability was 0.897.

Q: And the relative viability ([4]; first compound 4 µM)?
A: The relative viability was 0.198.
